According to paper PMC8490515, “Neuromedin B receptor stimulation of Cav3.2 T-type Ca^2+ channels in primary sensory neurons mediates peripheral pain hypersensitivity” (Theranostics, 2021):
Ends that are not written are not given here.

Assays:
[1] = system: T-type channels in small TG neurons; experiment: Whole-cell patch clamp of T-type channel currents (IT) in small TG neurons; type: cell-based, mouse; details: for inhibition of IT: 0.5 mM
T-type channels = details: cited from earlier work; for IT inhibition: dopamine in retinal horizontal cells, adrenaline in newt olfactory receptor cells, prevented by PKA inhibitors, ref [56]; for current density of IT: via PKC, insulin-like growth factor in dorsal root ganglion neurons, angiotensin-II in neonatal cardiomyocytes, ref [28], [60]
Description: In contrast, stimulation of PKC either by insulin-like growth factor in dorsal root ganglion neurons or by angiote ...

Cav3.2 (α1H) = experiment: Cav3.2 channel currents in HEK293 cells coexpressing NmbR; type: cell-based, human
Procedure: Standard whole-cell recordings were made at room temperature (22-23 °C) as described previously, [25]. Recording electrodes were pulled from borosilicate glass microcapillary tubes (Sutter Instruments) and had resistances from 3 to 5 MΩ when filled with internal solution. Recordings were obtained using a MultiClamp 700B amplifier (Axon Instruments). Data were digitized on a personal computer using a Digidata 1440 interface under the control of the pClamp10.2 acquisition package (Molecular Devices). Data were acquired at 20 kHz with a low-pass Bessel filter at 2-5 kHz. Series resistance was compensated to 80%. The internal solution used for T-type channel current recordings contained 110 mM CsCl, 4 mM Mg-ATP, 0.3 mM Na2-GTP, 25 mM HEPES, and 10 mM EGTA, adjusted to pH 7.4 with CsOH; 295 mOsm. The external solution used for T-type channel current recordings contained 5 mM BaCl2, 140 mM TEA-Cl, 10 mM HEPES, 0.5 mM MgCl2, 5 mM CsCl, and 5.5 mM glucose, adjusted to pH 7.35 with TEA-OH; 305 mOsm. In experiments for Kv current recordings, the extracellular solution contained 140 mM choline-Cl, 1 mM MgCl2, 0.03 mM CaCl2, 5 mM KCl, 10 mM HEPES, and 10 mM glucose, adjusted to pH 7.4 with KOH; 310 mOsm. The intracellular pipette solution contained 140 mM KCl, 1 mM MgCl2, 0.5 mM CaCl2, 3 mM Mg-ATP, 0.3 mM Na2-GTP, 10 mM HEPES, and 5 mM EGTA, adjusted to pH 7.4 with KOH; 295 mOsm.

PKA = PKA activity assay in TG cells (Pep Tag); type: cell-based, mouse; details: pretreatment 10 µM compound C, 100 nM Nmb 30 min
Procedure: PKA enzymatic activity in cell lysates was measured using the Pep Tag assay for nonradioactive detection of PKA (Promega, Madison, WI, USA) as described in our previous studies. Briefly, TG cells were cultured in 12-well plates and preincubated with BIM23042 (0.5 μM) or compound C (10 μM) followed by exposure to 100 nM Nmb for 30 min. TG cells were washed with ice-cold phosphate-buffered saline and placed on ice. PKA was extracted from the cell lysates with cold PKA extraction buffer (25 mM Tris-HCl, pH 7.4, 0.5 mM EDTA, 0.5 mM EGTA, 10 mM β-mercaptoethanol, 1 μg/mL leupeptin and 1 μg/mL aprotinin). The assay was conducted according to the manufacturer's instructions.

small TG neurons = experiment: TG neuronal excitability (action potential firing, rheobase, threshold); type: cell-based, mouse
Procedure: All the procedures performed in this study were carried out in accordance with NIH guidelines and were approved by the Institutional Animal Care and Use Committee of Soochow University. TG neurons were dissociated as previously described, [23]. Briefly, TGs were harvested from 8- to 10-week-old ICR mice of either sex, cut into small pieces and treated with 2 mg/mL collagenase D (Roche) for 20 min followed by 1.5 mg/mL trypsin (Sigma) at 37 °C for 15 min. Cells were dissociated via gentle trituration with fire-polished sterilized Pasteur pipettes and centrifuged through a 15% BSA gradient to remove debris and nonneuronal cells. TG neurons were resuspended in neurobasal A (Thermo Fisher) supplemented with B27 (Thermo Fisher) and transferred onto Matrigel-coated coverslips. Patch clamp recordings were conducted 2 to 6 h after plating. In shRNA-treated knockdown experiments, TG cells were replated onto coverslips 48 h after infection.
Standard whole-cell recordings were made at room temperature (22-23 °C) as described previously, [25]. Recording electrodes were pulled from borosilicate glass microcapillary tubes (Sutter Instruments) and had resistances from 3 to 5 MΩ when filled with internal solution. Recordings were obtained using a MultiClamp 700B amplifier (Axon Instruments). Data were digitized on a personal computer using a Digidata 1440 interface under the control of the pClamp10.2 acquisition package (Molecular Devices). Data were acquired at 20 kHz with a low-pass Bessel filter at 2-5 kHz. Series resistance was compensated to 80%. The internal solution used for T-type channel current recordings contained 110 mM CsCl, 4 mM Mg-ATP, 0.3 mM Na2-GTP, 25 mM HEPES, and 10 mM EGTA, adjusted to pH 7.4 with CsOH; 295 mOsm. The external solution used for T-type channel current recordings contained 5 mM BaCl2, 140 mM TEA-Cl, 10 mM HEPES, 0.5 mM MgCl2, 5 mM CsCl, and 5.5 mM glucose, adjusted to pH 7.35 with TEA-OH; 305 mOsm. In experiments for Kv current recordings, the extracellular solution contained 140 mM choline-Cl, 1 mM MgCl2, 0.03 mM CaCl2, 5 mM KCl, 10 mM HEPES, and 10 mM glucose, adjusted to pH 7.4 with KOH; 310 mOsm. The intracellular pipette solution contained 140 mM KCl, 1 mM MgCl2, 0.5 mM CaCl2, 3 mM Mg-ATP, 0.3 mM Na2-GTP, 10 mM HEPES, and 5 mM EGTA, adjusted to pH 7.4 with KOH; 295 mOsm. The two kinetically distinct Kv currents in small TG neurons were separated by the two-step voltage protocol as previously described, [26]. The external solution for Nav current clamp recordings contained 2 mM KCl, 2 mM MgCl2, 25 mM HEPES, 2 mM CaCl2, 128 mM NaCl, and 30 mM glucose, adjusted to pH 7.4 with NaOH; 305 mOsm. The internal solution contained 10 mM NaCl, 110 mM KCl, 4 mM Mg-ATP, 0.3 mM Na2-GTP, 25 mM HEPES, and 2 mM EGTA, adjusted to pH 7.3 with KOH; 295 mOsm. Nmb was applied to a patched cell by an air-pressure microinjector (Pneumatic PicoPump, model PV830, WPI).
We next determined the role of the Nmb-induced T-type channel response in regulating TG neuronal excitability. […] Furthermore, application of Nmb (100 nM) to TG neurons decreased the peak amplitude of the transient outward K^+ channel currents (A-type currents or IA) (decrease of 22.3 ± 3.9%; Figure 6C), while the sustained delayed rectifier K^+ channel currents (IDR) remained unaffected (decrease of 1.9 ± 1.6%; Figure 6C). […] To further test this hypothesis, a shorter (1 ms) current injection was applied to avoid contaminating the action potential waveform with the stimulus. Neurons were manually hyperpolarized to membrane potentials of -75 mV to maximize the number of T-type channels available for activation. With increasingly stronger current injections (+200 pA), the threshold current necessary to evoke an overshooting AP was determined for each neuron in the presence or absence of Nmb.

Q: Which “effect of PMA on IT” value ([1]; 5 μM, n = 7) does the source give for `CCCCCCCCCCCCCC(=O)O[C@@H]1[C@@H](C)[C@@]2(O)[C@@H](C=C(CO)C[C@]3(O)C(=O)C(C)=C[C@@H]23)[C@@H]2C(C)(C)[C@]12OC(C)=O` [PMA, phorbol 12-myristate 13-acetate] here?
A: Its value is “increase in IT”.

Q: For `CNC[C@H](O)c1ccc(O)c(O)c1` [adrenaline], which IT inhibition (T-type channels) is on record?
A: Its IT inhibition is “IT inhibition”.

Q: For `c1cc(-c2cnn3cc(-c4ccc(OCCN5CCCCC5)cc4)cnc23)ccn1` [compound C], which “Nmb-induced increase in IT after compound C” value ([1]; preincubation 10 µM compound C, 100 nM Nmb, n = 7) is on record?
A: The value was 2.6 ± 2.8%.

Q: What about the “Nmb-induced increase of Cav3.2 currents after compound C” value (Cav3.2 (α1H); pretreatment 10 µM compound C, 100 nM Nmb, n = 8) of the same molecule?
A: The value was 1.4 ± 2.9%.

Q: And the “effect on Nmb-induced increase in PKA activity” value (PKA)?
A: The value was “abrogated”.

Q: For “SKEEKSDKER WQHLADLADFALAMKDT [the scrambled peptide of QEHA]”, which “Nmb-induced increase in IT with SKEE” value ([1]; intracellular 10 μM SKEE, 100 nM Nmb, n = 7) is on record?
A: The value was 33.2 ± 3.5%.

Q: For “corticotrophin-releasing factor: T-type channel inhibition induced by corticotrophin-releasing factor (SEEPPISLDLTFHLLREVLEMARAEQLAQQAHSNRKLMEII; ends and bridges not checked; UniProt P06850 154-194, looked up)”, which T-type channel inhibition (T-type channels; MN9D dopaminergic cells, prevented by PKC inhibitors, ref [59]) is on record?
A: Its T-type channel inhibition is “T-type channel inhibition”.

Q: For `C=C[C@@]1(C)CC(=O)[C@]2(O)[C@@]3(C)[C@@H](O)CCC(C)(C)[C@@H]3[C@H](O)[C@H](OC(C)=O)[C@@]2(C)O1` [forskolin], which “increase of IT by forskolin” value ([1]; 10 μM, n = 7) is on record?
A: The value was 38.3 ± 2.1%.

Q: For “PKC 19-36: a pseudosubstrate peptide inhibitor of PKC (RFARKGALRQKNVHEVKD; UniProt P17252 19-36, looked up, fragment)”, which “effect on PMA-induced increase in IT” value ([1]; 10 μM PKC 19-36, 5 μM PMA, n = 5) is on record?
A: Its value is “abrogated the increase in IT”.

Q: And the “Nmb-induced increase in IT with PKC 19-36” value ([1]; dialysis 10 µM PKC 19-36, 100 nM Nmb, n = 7)?
A: The value was 31.5 ± 3.5%.

Q: And the “Nmb-induced increase of Cav3.2 currents with PKC 19-36” value (Cav3.2 (α1H); dialysis 10 μM PKC 19-36, 100 nM Nmb, n = 9)?
A: The value was 30.8 ± 2.3%.

Q: Which IT inhibition (T-type channels) does the source give for `NCCc1ccc(O)c(O)c1` [dopamine] here?
A: The IT inhibition was “IT inhibition”.

Q: Which “current density of IT” value (T-type channels) does the source give for “angiotensin-II: angiotensin-II in neonatal cardiomyocytes (DRVYIHPF; Angiotensin-2; UniProt P01019 25-32, looked up)” here?
A: Its value is “significantly increases the current density”.

Q: Which “Nmb-induced increase in IT after cholera toxin (Gs)” value [1] does the source give for cholera toxin here?
A: Its value is 33.5 ± 2.9%.

Q: Which “Nmb-induced increase in IT after U73122” value ([1]; pretreatment 3 μM U73122 (legend: 1 μM), 100 nM Nmb, n = 8) does the source give for `COc1ccc2c(c1)CC[C@@H]1[C@@H]2CC[C@]2(C)[C@@H](NCCCCCCN3C(=O)C=CC3=O)CC[C@@H]12` [U73122] here?
A: Its value is 31.8 ± 4.2%.

Q: Which “Nmb-induced increase in IT with QEHA” value ([1]; dialysis 10 μM QEHA, 100 nM Nmb, n = 6) does the source give for “QEHAQEPERQYMHIGTMVEFAYALVGK [Gβγ antagonist QEHA peptide]” here?
A: Its value is 3.2 ± 2.5%.

Q: With insulin-like growth factor as the molecule, how does the “current density of IT” value (T-type channels) read?
A: The value was “significantly increases the current density”.

Q: For `[Cl][Ni][Cl]` [NiCl2], which “decrease of the remaining inward current (IT)” value ([1]; 50 μM, -110 mV Vh to -40 mV, 22-23 °C, n = 5) is on record?
A: Its value is 79.2%.

Q: And the “inhibition of IT at the end of recording after Nmb” value ([1]; 0.5 mM NiCl2 added at end of recording after 100 nM Nmb)?
A: Its value is “almost abrogated the IT”.

Q: And the “inhibition of IT” value ([1]; n = 5)?
A: Its value is “almost completely abolished”.

Q: And the “inhibition of IT” value ([1]; n = 5, listed as Ni^2+)?
A: The value was “completely blocked IT”.

Q: And the “effect on Nmb-induced decrease in AP threshold” value (small TG neurons; preincubation 50 µM NiCl2, 100 nM Nmb, n = 9)?
A: Its value is “completely prevented”.

Q: What about the “effect on Nmb-mediated increase in AP firing rate / hyperexcitability” value (small TG neurons; pretreatment KT-5720 1 µM (n = 12) or NiCl2 50 μM (n = 11), 100 nM Nmb) of the same molecule?
A: Its value is “completely abolish”.

Q: Which “Nmb-induced increase in IT with GDP-β-S” value ([1]; 1 mM intracellular GDP-β-S, 100 nM Nmb, n = 6) does the source give for `Nc1nc2c(ncn2[C@@H]2O[C@H](COP(=O)(O)OP(O)(O)=S)[C@@H](O)[C@H]2O)c(=O)[nH]1` [GDP-β-S] here?
A: The value was 2.3 ± 2.7%.
